According to patent US11629171B2, “Beta-hairpin peptidomimetics” (POLYPHOR AG, priority 2017, dated 2023):
Converted amounts (≈) assume the structure as drawn. Where a SMILES comes first, the peptide text is derived from it. Bridges are numbered along the chain shown (N, C = ends). Roman numbers before positions name the chains, in order. [ ]: non-standard residue; d: D form. Thr(ol) = C[C@@H](O)[C@H](N)CO; Tle = CC(C)(C)[C@H](N)C(=O)O; Hiv = CC(C)[C@H](O)C(=O)O; dDab = NCC[C@@H](N)C(=O)O; hSer = N[C@@H](CCO)C(=O)O; Orn = NCCC[C@H](N)C(=O)O; Dab = NCC[C@H](N)C(=O)O; Dap = NC[C@H](N)C(=O)O

Assays:
Assay type in all cases: cell-based
[1] = test system: Pseudomonas aeruginosa ATCC 27853; details: ATCC 27853
In short: (§1)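 Broth microdilution per CLSI; MH-II (cation-adjusted) + 0.002% P-80 final; ~10^6 CFU/mL inoculum; 2-fold peptide series; 35° C, 18-20 h; MIC = no visible growth, μg/mL.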

[2] = test system: Escherichia coli ATCC 25922; details: ATCC 25922
In short: as §1

[3] = test system: Klebsiella pneumoniae 968733; details: 968733
In short: as §1

[4] = test system: Acinetobacter baumannii DSM 30008; details: DSM 30008
In short: as §1

[5] = test system: Escherichia coli 926415; details: 926415
In short: as §1

[6] = test system: Enterobacter cloacae 848840; details: 848840
In short: as §1

[7] = test system: Acinetobacter baumannii 872842; details: 872842
In short: as §1

[8] = test system: Klebsiella pneumoniae SSI #3010; details: SSI #3010
In short: as §1

[9] = test system: human red blood cells (hRBC); assay: Hemolysis; details: red cells of human, 1 h, 200
In short: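 Washed fresh hRBC (20% v/v) were incubated with peptides at 200 μg/mL for 1 h at 37° C with shaking at 300 rpm. Supernatant OD540 was read after centrifugation and dilution, blank-corrected, and expressed as percent of the 2% Triton X-100 (100% lysis) control; PBS with 10% water gave 0%.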

| SMILES | MIC [1] [µg/mL] | MIC [2] [µg/mL] | MIC [3] [µg/mL] | MIC [4] [µg/mL] | MIC [5] [µg/mL] | MIC [6] [µg/mL] | MIC [7] [µg/mL] | MIC [8] [µg/mL] | Hemolysis at 200 μg/mL [9] [%] | Pseudomonas aeruginosa ATCC 27853 MIC [1] [µg/mL] | Escherichia coli ATCC 25922 MIC [2] [µg/mL] | Acinetobacter baumannii DSM 30008 MIC [4] [µg/mL] | Klebsiella pneumoniae SSI #3010 MIC [8] [µg/mL] |
| --- | --- | --- | --- | --- | --- | --- | --- | --- | --- | --- | --- | --- | --- |
| CC(=O)N[C@H](C(=O)N[C@H]1CCNC(=O)C[C@@H](C(=O)N[C@@H](CO)C(N)=O)NC(=O)[C@H](C(C)C)NC(=O)[C@H](CO)NC(=O)[C@H](Cc2c[nH]c3ccccc23)NC(=O)[C@H](CO)NC(=O)[C@@H](CCN)NC(=O)[C@H](CCC(=O)N[C@@H](CCN)C(=O)N[C@H](C(=O)N[C@@H](CN)C(=O)N[C@H]2CCNC(=O)[C@H]([C@@H](C)O)NC(=O)[C@H](CCN)NC(=O)[C@H](CCN)NC(=O)[C@H](CC(C)C)NC(=O)[C@@H](CC(C)C)NC(=O)[C@H](CCN)NC2=O)[C@@H](C)O)NC(=O)[C@H](CN)NC(=O)[C@H](Cc2ccc(O)cc2)NC1=O)C(C)C [Ex. 149] (I: Ac-V[Dab]Y[Dap]E[dDab]SWSVDS-NH2 / II: [Dab]T[Dap][Dab][Dab][dL]L[Dab][Dab]T; lactam I:2-I:11, II:4-II:C; amide I:5-II:N) | 0.125 (≈ 0.0526 µM) | 0.0625 (≈ 0.0263 µM) | 0.5 (≈ 0.21 µM) | 0.0625 (≈ 0.0263 µM) | 0.25 (≈ 0.105 µM) | 0.125 (≈ 0.0526 µM) | 0.125 (≈ 0.0526 µM) | 0.125 (≈ 0.0526 µM) | <1 | – | – | – | – |
| CC(=O)N[C@H](C(=O)N[C@H]1CSSC[C@@H](C(=O)N[C@@H](CO)C(=O)N[C@@H](CC(=O)O)C(N)=O)NC(=O)[C@H](C(C)C)NC(=O)[C@H](CO)NC(=O)[C@H](Cc2c[nH]c3ccccc23)NC(=O)[C@H](CCN)NC(=O)[C@@H](CCN)NC(=O)[C@H](CCC(=O)N[C@@H](CCN)C(=O)N[C@H](C(=O)N[C@@H](CN)C(=O)N[C@H]2CCNC(=O)[C@H]([C@@H](C)O)NC(=O)[C@H](CCN)NC(=O)[C@H](CCN)NC(=O)[C@H](CC(C)C)NC(=O)[C@@H](CC(C)C)NC(=O)[C@H](CCN)NC2=O)[C@@H](C)O)NC(=O)[C@H](CO)NC(=O)[C@H](Cc2ccc(O)cc2)NC1=O)C(C)C [Ex. 371] (I: Ac-VCYSE[dDab][Dab]WSVCSD-NH2 / II: [Dab]T[Dap][Dab][Dab][dL]L[Dab][Dab]T; disulfide I:2-I:11; amide I:5-II:N; lactam II:4-II:C) | – | – | 0.5 (≈ 0.199 µM) | – | 0.25 (≈ 0.0994 µM) | 0.5 (≈ 0.199 µM) | 0.0625 (≈ 0.0249 µM) | – | 0 | 0.0625 | 0.0625 | 0.0625 | 0.0625 |
| CC(C)C[C@@H]1NC(=O)[C@@H](CC(C)C)NC(=O)[C@H](CCN)NC(=O)[C@@H](NC(=O)[C@H](CCN)NC(=O)[C@@H](NC(=O)[C@H](CCN)NC(=O)CC[C@@H]2NC(=O)[C@H](CCN)NC(=O)[C@H](Cc3ccc(O)cc3)NC(=O)[C@@H](NC(=O)[C@@H](O)C(C)C)CSSC[C@@H](C(=O)N[C@H](CO)[C@@H](C)O)NC(=O)[C@H](C(C)(C)C)NC(=O)[C@H](CCO)NC(=O)[C@H](Cc3c[nH]c4ccccc34)NC(=O)[C@H](CO)NC(=O)[C@@H](CCN)NC2=O)[C@@H](C)O)CCNC(=O)[C@H]([C@@H](C)O)NC(=O)[C@H](CCN)NC(=O)[C@H](CCN)NC1=O [Ex. 83] (I: H-[Hiv]CY[Dab]E[dDab]SW[hSer][Tle]C[Thr(ol)] / II: [Dab]T[Dab][Dab][Dab][dL]L[Dab][Dab]T; disulfide I:2-I:11; amide I:5-II:N; lactam II:4-II:C) | 0.125 (≈ 0.0521 µM) | 0.0625 (≈ 0.026 µM) | 0.25 (≈ 0.104 µM) | 0.0625 (≈ 0.026 µM) | 0.25 (≈ 0.104 µM) | 0.125 (≈ 0.0521 µM) | 0.125 (≈ 0.0521 µM) | 0.0625 (≈ 0.026 µM) | <1 | – | – | – | – |
| CC[C@H](C)[C@@H]1NC(=O)[C@H](CO)NC(=O)[C@H](Cc2c[nH]c3ccccc23)NC(=O)[C@H](CO)NC(=O)[C@@H](CCN)NC(=O)[C@H](CCC(=O)N[C@@H](CCN)C(=O)N[C@H](C(=O)N[C@@H](CN)C(=O)N[C@H]2CCNC(=O)[C@H]([C@@H](C)O)NC(=O)[C@H](CCN)NC(=O)[C@H](CCN)NC(=O)[C@H](CC(C)C)NC(=O)[C@@H](CC(C)C)NC(=O)[C@H](CCN)NC2=O)[C@@H](C)O)NC(=O)[C@H](CCN)NC(=O)[C@H](Cc2ccc(O)cc2)NC(=O)[C@@H](NC(=O)[C@@H](NC(C)=O)C(C)C)CCNC(=O)C[C@@H](C(=O)N[C@@H](CO)C(N)=O)NC1=O [Ex. 323] (I: Ac-V[Dab]Y[Dab]E[dDab]SWSIDS-NH2 / II: [Dab]T[Dap][Dab][Dab][dL]L[Dab][Dab]T; lactam I:2-I:11, II:4-II:C; amide I:5-II:N) | – | – | 0.5 (≈ 0.208 µM) | – | 0.25 (≈ 0.104 µM) | 0.125 (≈ 0.052 µM) | 0.0625 (≈ 0.026 µM) | – | <1 | 0.125 | 0.0625 | 0.0625 | 0.125 |
| CC(=O)N[C@H](C(=O)N[C@H]1CCCNC(=O)[C@@H]([C@H](C)O)NC(=O)[C@H](C(C)(C)C)NC(=O)[C@H](CO)NC(=O)[C@H](Cc2c[nH]c3ccccc23)NC(=O)[C@H](CCO)NC(=O)[C@@H](CCN)NC(=O)[C@H](CCC(=O)N[C@@H](CCN)C(=O)N[C@H](C(=O)N[C@@H](CN)C(=O)N[C@H]2CCNC(=O)[C@H]([C@@H](C)O)NC(=O)[C@H](CCN)NC(=O)[C@H](CCN)NC(=O)[C@H](CC(C)C)NC(=O)[C@@H](CC(C)C)NC(=O)[C@H](CCN)NC2=O)[C@@H](C)O)NC(=O)[C@H]([C@@H](C)O)NC(=O)[C@H](Cc2ccc(O)cc2)NC1=O)C(C)C [Ex. 17] (I: Ac-V[Orn]YTE[dDab][hSer]WS[Tle][dT] / II: [Dab]T[Dap][Dab][Dab][dL]L[Dab][Dab]T; lactam I:2-I:C, II:4-II:C; amide I:5-II:N) | 0.25 (≈ 0.107 µM) | 0.0625 (≈ 0.0268 µM) | 0.5 (≈ 0.214 µM) | 0.0625 (≈ 0.0268 µM) | 0.5 (≈ 0.214 µM) | 0.25 (≈ 0.107 µM) | 0.125 (≈ 0.0535 µM) | 0.125 (≈ 0.0535 µM) | <1 | – | – | – | – |
| CC(=O)N[C@H](C(=O)N[C@H]1CSSC[C@@H](C(=O)N[C@@H](CO)C(N)=O)NC(=O)[C@H](C(C)C)NC(=O)[C@H](CO)NC(=O)[C@H](Cc2c[nH]c3ccccc23)NC(=O)[C@H](CCC(=O)N[C@@H](CCN)C(=O)N[C@H](C(=O)N[C@@H](CN)C(=O)N[C@H]2CCNC(=O)[C@H]([C@@H](C)O)NC(=O)[C@H](CCN)NC(=O)[C@H](CCN)NC(=O)[C@H](CC(C)C)NC(=O)[C@@H](CC(C)C)NC(=O)[C@H](CCN)NC2=O)[C@@H](C)O)NC(=O)[C@@H](CCN)NC(=O)CNC(=O)[C@H](CCN)NC(=O)[C@H](Cc2ccc(O)cc2)NC1=O)C(C)C [Ex. 360] (I: Ac-VCY[Dab]G[dDab]EWSVCS-NH2 / II: [Dab]T[Dap][Dab][Dab][dL]L[Dab][Dab]T; disulfide I:2-I:11; amide I:7-II:N; lactam II:4-II:C) | – | – | 0.5 (≈ 0.211 µM) | – | 0.25 (≈ 0.106 µM) | 0.125 (≈ 0.0528 µM) | 0.125 (≈ 0.0528 µM) | – | 2 | 0.125 | 0.0625 | 0.0625 | 0.0625 |
| CC(=O)N[C@H](C(=O)N[C@H]1CSSC[C@@H](C(=O)N[C@@H](CO)C(N)=O)NC(=O)[C@H](C(C)C)NC(=O)[C@H](CC(=O)O)NC(=O)[C@H](Cc2c[nH]c3ccccc23)NC(=O)[C@H](CO)NC(=O)[C@@H](CCN)NC(=O)[C@H](CCC(=O)N[C@@H](CCN)C(=O)N[C@H](C(=O)N[C@@H](CN)C(=O)N[C@H]2CCNC(=O)[C@H]([C@@H](C)O)NC(=O)[C@H](CCN)NC(=O)[C@H](CCN)NC(=O)[C@H](CC(C)C)NC(=O)[C@@H](CC(C)C)NC(=O)[C@H](CCN)NC2=O)[C@@H](C)O)NC(=O)[C@H](CCCCN)NC(=O)[C@H](Cc2ccc(O)cc2)NC1=O)C(C)C [Ex. 152] (I: Ac-VCYKE[dDab]SWDVCS-NH2 / II: [Dab]T[Dap][Dab][Dab][dL]L[Dab][Dab]T; disulfide I:2-I:11; amide I:5-II:N; lactam II:4-II:C) | 0.25 (≈ 0.102 µM) | 0.125 (≈ 0.0509 µM) | 8 (≈ 3.26 µM) | 0.125 (≈ 0.0509 µM) | 2 (≈ 0.815 µM) | 0.5 (≈ 0.204 µM) | 1 (≈ 0.407 µM) | 0.25 (≈ 0.102 µM) | <1 | – | – | – | – |
